Source: patent publication US12692261B2, “Substituted heterocyclic compounds and therapeutic uses thereof” (Bayer Aktiengesellschaft, priority 2020, dated 2026)
pIC50: −log10 of the molar value.

Columns and labels:
[1] = molecular target: T1, wild-type Epidermal Growth Factor Receptor (EGFR) (Homo sapiens, UniProt P00533); assay: WT-EGFR Kinase Assay (TR-FRET, 2 mM ATP); format: biochemical; conditions: EGFR Wildtyp 2 mM ATP IC50 [mol/l] (median), Table 4
T1 construct: a fragment of human EGFR (amino acids R669 to A1210); made in house; host or cells: Sf9 insect cells
From the text: Inhibitory activity of compounds of the present invention against wild-type Epidermal Growth Factor Receptor (EGFR) was quantified employing the TR-FRET based EGFR assay as described in the following paragraphs.
Recombinant fusion protein of N-terminal Glutathion-S-Transferase (GST) and a fragment of human EGFR (amino acids R669 to A1210), expressed in Sf9 insect cells and purified via affinity chromatography using Glutathion Sepharose as described above, was used as kinase. As substrate for the kinase reaction the biotinylated peptide biotin-Ahx-[…] (C-terminus in amide form) was used which can be purchased e.g. form the company Biosynthan GmbH (Berlin-Buch, Germany).
For the assay 50 nl of a 100 fold concentrated solution of the test compound in DMSO was pipetted into either a black low volume 384 well microtiter plate or a black 1536 well microtiter plate (both Greiner Bio-One, Frickenhausen, Germany), 2 μL of a solution of EGFR in aqueous assay buffer [50 mM Hepes pH 7.0, 10 mM MgCl2, 1 mM dithiothreitol, 0.5 mM EGTA, 0.3 mM activated sodium ortho-vanadate, 0.005% (w/v) bovine serum albumin, 0.005% (v/v) Tween-20] were added and the mixture was incubated for 15 min at 22° C. to allow pre-binding of the test compounds to the enzyme before the start of the kinase reaction. […] The concentration of EGFR was adjusted depending of the activity of the enzyme lot and was chosen appropriate to have the assay in the linear range, typical concentration was 7.6 pg/μL. The reaction was stopped by the addition of 3 μL of a solution of HTRF detection reagents (83.3 nM streptavidine-XL665 [Cisbio Bioassays, Codolet, France] and 1.67 nM PT66-Tb-Cryptate, a terbium-cryptate labelled anti-phospho-tyrosine antibody from Cisbio Bioassays [instead of the PT66-Tb-cryptate PT66-Eu-Chelate from Perkin Elmer can also be used]) in an aqueous EDTA-solution (133.3 mM EDTA, 0.2% (w/v) bovine serum albumin in 50 mM HEPES pH 7.5).
The resulting mixture was incubated 1 h at 22° C. to allow the binding of the biotinylated phosphorylated peptide to the streptavidine-XL665 and the PT66-Tb-Cryptate. Subsequently the amount of phosphorylated substrate was evaluated by measurement of the resonance energy transfer from the PT66-Tb-Cryptate to the streptavidine-XL665. Therefore, the fluorescence emissions at 620 nm and 665 nm after excitation at 337 nm were measured in a HTRF reader, e.g. a Pherastar (BMG Labtechnologies, Offenburg, Germany) or a Viewlux (Perkin-Elmer). The ratio of the emissions at 665 nm and at 622 nm was taken as the measure for the amount of phosphorylated substrate.

[2] = molecular target: T2, full-length human CSNK1A1 (Homo sapiens, UniProt P48729); assay: CSNK1A1 Assay 2 (ADP-Glo, 1 μM ATP, substrate biotin-Ahx-KRRRAL-pS-VASLPGL); format: biochemical; conditions: Table 3, read-out: CSNK1A1 Assay 2 IC50 [mol/l] (median)
T2 construct: N-terminal Glutathion-S-Transferase (GST) and full-length human CSNK1A1; purchased Life Technologies PV4174; host or cells: baculovirus infected insect cells
Experimental: CSNK1A1-inhibitory activity of compounds of the present invention in presence of 1 μM adenosine-tri-phosphate (ATP) was quantified employing the CSNK1A1 assay as described in the following paragraphs. In essence, the enzyme activity is measured by quantification of the adenosine-di-phosphate (ADP), which is generated as a co-product of the enzyme reaction, via the “ADP-Glo™ Kinase Assay” kit from the company Promega. This detection system works as follows: In a first step the ATP not consumed in the kinase reaction is quantitatively converted to cAMP employing an adenylate cyclase (“ADP-Glo-reagent”), then the adenylate cyclase is stopped and the ADP generated in the kinase reaction converted to ATP which generates in a luciferase-based reaction a glow-luminescence signal (“Kinase Detection Reagent”).
Recombinant fusion protein of N-terminal Glutathion-S-Transferase (GST) and full-length human CSNK1A1, expressed by baculovirus infected insect cells and purified via Glutathion affinity chromatography, was purchased from Life Technologies (product no. PV4174) and used as enzyme. As substrate for the kinase reaction the biotinylated peptide biotin-Ahx-KRRRAL-pS-VASLPGL (C-terminus in amide form) was used which can be purchased e.g. from the company Biosyntan (Berlin-Buch, Germany).
For the assay 50 nl of a 100 fold concentrated solution of the test compound in DMSO was pipetted into a white 1536-well microtiter plate (Greiner Bio-One, Frickenhausen, Germany), 2 μL of a solution of CSNK1A1 in aqueous assay buffer [50 mM HEPES pH 7.5, 10% (v/v) glycerol, 10 mM MgCl2, 50 mM NaCl, 1 mM dithiothreitol, 0.01% (w/v) bovine serum albumin, 0.01% (v/v) Triton X-100] were added and the mixture was incubated for 15 min at 22° C. to allow pre-binding of the test compounds to the enzyme before the start of the kinase reaction. […] The concentration of CSNK1A1 was adjusted depending of the activity of the enzyme lot and was chosen appropriate to have the assay in the linear range, a typical concentrations are about 0.0375 ng/μL. The reaction was stopped by the addition of 2.5 μL of “ADP-Glo-reagent” (1:1.5 fold diluted with water) and the resulting mixture was incubated at 22° C. for 1 h to convert the ATP not consumed in the kinase reaction completely […]. Subsequently 2.5 μL of the “kinase detection reagent” (1.2 fold more concentrated than recommended by the producer) were added, the resulting mixture was incubated at 22° C. for 1 h and then the luminescence measured with a suitable measurement instrument (e.g. Viewlux™ from Perkin-Elmer). The amount of emitted light was taken as a measure for the amount of ADP generated and thereby for the activity of the CSNK1A1.

T2 sequence (P48729 whole entry): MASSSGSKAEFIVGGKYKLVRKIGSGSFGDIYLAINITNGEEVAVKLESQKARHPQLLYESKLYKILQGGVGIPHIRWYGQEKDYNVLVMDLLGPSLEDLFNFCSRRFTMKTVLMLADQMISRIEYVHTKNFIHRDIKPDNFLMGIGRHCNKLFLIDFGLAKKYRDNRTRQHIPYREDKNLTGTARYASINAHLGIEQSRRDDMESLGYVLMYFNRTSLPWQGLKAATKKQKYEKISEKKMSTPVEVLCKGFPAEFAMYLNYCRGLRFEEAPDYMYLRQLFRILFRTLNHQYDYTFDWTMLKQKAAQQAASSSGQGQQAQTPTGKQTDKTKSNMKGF
T1 sequence (P00533 669-1210): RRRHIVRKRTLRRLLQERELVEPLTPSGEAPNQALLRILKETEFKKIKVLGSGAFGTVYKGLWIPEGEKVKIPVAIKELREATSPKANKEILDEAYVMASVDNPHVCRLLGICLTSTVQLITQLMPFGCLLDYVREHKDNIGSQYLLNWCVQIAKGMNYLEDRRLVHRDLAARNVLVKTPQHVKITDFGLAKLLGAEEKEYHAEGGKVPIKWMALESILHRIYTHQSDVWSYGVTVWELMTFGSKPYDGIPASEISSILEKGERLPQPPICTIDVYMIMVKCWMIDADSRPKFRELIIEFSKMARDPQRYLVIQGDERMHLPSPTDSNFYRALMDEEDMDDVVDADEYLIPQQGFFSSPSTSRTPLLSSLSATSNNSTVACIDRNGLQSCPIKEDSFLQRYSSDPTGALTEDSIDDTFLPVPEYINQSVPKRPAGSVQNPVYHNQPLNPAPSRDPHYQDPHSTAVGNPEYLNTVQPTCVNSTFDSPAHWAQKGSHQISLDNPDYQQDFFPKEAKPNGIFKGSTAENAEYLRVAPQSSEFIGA

O=C(Nc1cc(-c2[nH]c3c(OC[C@H]4COCCO4)cc(F)nc3c2-c2ccccn2)ccn1)C(CC(F)F)c1ccc(F)cc1 (mixture of isomers) [Example 50, (2RS)—N-{4-[7-{[(2R)-1,4-dioxan-2-yl]methoxy}-5-fluoro-3-(pyridin-2-yl)-1H-pyrrolo[3,2-b]pyridin-2-yl]pyridin-2-yl}-4,4-difluoro-2-(4-fluorophenyl)butanamide]
pIC50 [1]: < 4.70
pIC50 [2]: 8.03

Cc1ccc2[nH]c(-c3ccnc(NC(=O)C(CC(F)F)c4ccc(F)cc4)c3)c(-c3ccccn3)c2n1 (racemic) [Example 4, 4,4-difluoro-2-(4-fluorophenyl)-N-{4-[5-methyl-3-(pyridin-2-yl)-1H-pyrrolo[3,2-b]pyridin-2-yl]pyridin-2-yl}butanamide]
pIC50 [1]: < 4.70
pIC50 [2]: 8.19

Cc1cnc2c(-c3ccccn3)c(-c3ccnc(NC(=O)C(CC(F)F)c4ccc(F)cc4)c3)[nH]c2c1 (racemic) [Example 7, 4,4-difluoro-2-(4-fluorophenyl)-N-{4-[6-methyl-3-(pyridin-2-yl)-1H-pyrrolo[3,2-b]pyridin-2-yl]pyridin-2-yl}butanamide]
pIC50 [1]: < 4.70
pIC50 [2]: 8.56

O=C(Nc1cc(-c2[nH]c3cccnc3c2-c2ccccn2)ccn1)C(CC(F)F)c1ccc(F)cc1 (racemic) [Example 10, 4,4-difluoro-2-(4-fluorophenyl)-N-{4-[3-(pyridin-2-yl)-1H-pyrrolo[3,2-b]pyridin-2-yl]pyridin-2-yl}butanamide]
pIC50 [1]: < 4.70
pIC50 [2]: 8.58

O=C(Nc1cc(-c2[nH]c3cncnc3c2-c2ccccn2)ccn1)C(CC(F)F)c1ccc(F)cc1 (racemic) [Example 13, 4,4-difluoro-2-(4-fluorophenyl)-N-{4-[7-(pyridin-2-yl)-5H-pyrrolo[3,2-d]pyrimidin-6-yl]pyridin-2-yl}butanamide]
pIC50 [1]: < 4.70
pIC50 [2]: 8.33

O=C(Nc1cc(-c2[nH]c3cc(F)cnc3c2-c2ccccn2)ccn1)C(CC(F)F)c1ccc(F)cc1 (racemic) [Example 16, 4,4-difluoro-2-(4-fluorophenyl)-N-{4-[6-fluoro-3-(pyridin-2-yl)-1H-pyrrolo[3,2-b]pyridin-2-yl]pyridin-2-yl}butanamide]
pIC50 [1]: < 4.70
pIC50 [2]: 8.47

O=C(Nc1cc(-c2[nH]c3cc(F)cnc3c2-c2ccccc2)ccn1)C(CC(F)F)c1ccc(F)cc1 (racemic) [Example 19, 4,4-difluoro-2-(4-fluorophenyl)-N-[4-(6-fluoro-3-phenyl-1H-pyrrolo[3,2-b]pyridin-2-yl)pyridin-2-yl]butanamide]
pIC50 [1]: < 4.70
pIC50 [2]: 8.04

O=C(Nc1cc(-c2[nH]c3cccnc3c2-c2ccccc2)ccn1)C(CC(F)F)c1ccc(F)cc1 (racemic) [Example 22, 4,4-difluoro-2-(4-fluorophenyl)-N-[4-(3-phenyl-1H-pyrrolo[3,2-b]pyridin-2-yl)pyridin-2-yl]butanamide]
pIC50 [1]: < 4.70
pIC50 [2]: 8.63

O=C(Nc1cc(-c2[nH]c3cccnc3c2-c2cccc(F)n2)ccn1)C(CC(F)F)c1ccc(F)cc1 (racemic) [Example 25, 4,4-difluoro-2-(4-fluorophenyl)-N-{4-[3-(6-fluoropyridin-2-yl)-1H-pyrrolo[3,2-b]pyridin-2-yl]pyridin-2-yl}butanamide]
pIC50 [1]: < 4.70
pIC50 [2]: 8.56

O=C(Nc1cc(-c2[nH]c3c(OCC(F)F)cc(F)nc3c2-c2ccccn2)ccn1)C(CC(F)F)c1ccc(F)cc1 (racemic) [Example 28, (2RS)—N-{4-[7-(2,2-difluoroethoxy)-5-fluoro-3-(pyridin-2-yl)-1H-pyrrolo[3,2-b]pyridin-2-yl]pyridin-2-yl}-4,4-difluoro-2-(4-fluorophenyl)butanamide]
pIC50 [1]: < 4.70
pIC50 [2]: 8.40

O=C(Nc1cc(-c2[nH]c3nccnc3c2-c2ccccn2)ccn1)C(CC(F)F)c1ccc(F)cc1 (racemic) [Example 31, (2RS)-4,4-difluoro-2-(4-fluorophenyl)-N-{4-[7-(pyridin-2-yl)-5H-pyrrolo[2,3-b]pyrazin-6-yl]pyridin-2-yl}butanamide]
pIC50 [1]: < 4.70
pIC50 [2]: 8.52

Cc1cc2[nH]c(-c3ccnc(NC(=O)C(CC(F)F)c4ccc(F)cc4)c3)c(-c3ccccn3)c2nc1F (racemic) [Example 33, (rac)-4,4-difluoro-N-{4-[5-fluoro-6-methyl-3-(pyridin-2-yl)-1H-pyrrolo[3,2-b]pyridin-2-yl]pyridin-2-yl}-2-(4-fluorophenyl)butanamide]
pIC50 [1]: < 4.70
pIC50 [2]: 7.71

Cc1cc(F)nc2c(-c3ccccn3)c(-c3ccnc(NC(=O)C(CC(F)F)c4ccc(F)cc4)c3)[nH]c12 (racemic) [Example 36, (rac)-4,4-difluoro-N-{4-[5-fluoro-7-methyl-3-(pyridin-2-yl)-1H-pyrrolo[3,2-b]pyridin-2-yl]pyridin-2-yl}-2-(4-fluorophenyl)butanamide]
pIC50 [1]: < 4.70
pIC50 [2]: 7.67

COc1cc(F)nc2c(-c3ccccn3)c(-c3ccnc(NC(=O)C(CC(F)F)c4ccc(F)cc4)c3)[nH]c12 (racemic) [Example 39, (rac)-4,4-difluoro-N-{4-[5-fluoro-7-methoxy-3-(pyridin-2-yl)-1H-pyrrolo[3,2-b]pyridin-2-yl]pyridin-2-yl}-2-(4-fluorophenyl)butanamide]
pIC50 [1]: < 4.70
pIC50 [2]: 7.72

O=C(Nc1cc(-c2[nH]c3c(OC4CC4)cc(F)nc3c2-c2ccccn2)ccn1)C(CC(F)F)c1ccc(F)cc1 (racemic) [Example 42, (rac)-N-{4-[7-(cyclopropyloxy)-5-fluoro-3-(pyridin-2-yl)-1H-pyrrolo[3,2-b]pyridin-2-yl]pyridin-2-yl}-4,4-difluoro-2-(4-fluorophenyl)butanamide]
pIC50 [1]: < 4.70
pIC50 [2]: 8.09

O=C(Nc1cc(-c2[nH]c3c(CC4CC4)cc(F)nc3c2-c2ccccn2)ccn1)C(CC(F)F)c1ccc(F)cc1 (racemic) [Example 46, (2RS)—N-{4-[7-(cyclopropylmethyl)-5-fluoro-3-(pyridin-2-yl)-1H-pyrrolo[3,2-b]pyridin-2-yl]pyridin-2-yl}-4,4-difluoro-2-(4-fluorophenyl)butanamide]
pIC50 [1]: < 4.70
pIC50 [2]: 7.63
